Laboratory results taken from US10016422B2, “Nanocarrier drug delivery platform” (Oregon State University, priority 2015, dated 2018).
≈ marks a conversion by molar mass, not a printed value.

Assay: Intrinsic aqueous solubility and solubility increase in nanoparticles
Assay type: physicochemical
Conditions: for solubility: aqueous medium; for increase of solubility by incorporation into the nanoparticles: versus intrinsic aqueous solubility

Row | Compound | solubility [µg/mL] | increase of solubility by incorporation into the nanoparticles [fold]
1 | CC(=O)O[C@@]12CO[C@@H]1C[C@H](O)[C@@]1(C)C(=O)[C@H](O)C3=C(C)[C@@H](OC(=O)[C@H](O)[C@@H](NC(=O)OC(C)(C)C)c4ccccc4)C[C@@](O)([C@@H](OC(=O)c4ccccc4)[C@H]21)C3(C)C [DTX, docetaxel] | – | 455
2 | CO[C@H]1C[C@@H]2CC[C@@H](C)[C@@](O)(O2)C(=O)C(=O)N2CCCC[C@H]2C(=O)O[C@H]([C@H](C)C[C@@H]2CC[C@@H](OCCO)[C@H](OC)C2)CC(=O)[C@H](C)/C=C(\C)[C@@H](O)[C@@H](OC)C(=O)[C@H](C)C[C@H](C)/C=C/C=C/C=C/1C [EVR, everolimus] | 9.6 (≈ 10 µM) | 201
3 | CC(C)(C)c1nc(-c2cccc(NS(=O)(=O)c3c(F)cccc3F)c2F)c(-c2ccnc(N)n2)s1 [DAB, dabrafenib] | 1 (≈ 1.92 µM) | 1000

Next, values leading:

Row | solubility [µg/mL] | increase of solubility by incorporation into the nanoparticles [fold] | Compound
4 | 243 (≈ 791 µM) | 8 | O=c1cc(N2CCOCC2)oc2c(-c3ccccc3)cccc12 [LY, LY294002]
5 | 6 (≈ 9.75 µM) | 221 | CC(=O)Nc1cccc(-n2c(=O)n(C3CC3)c(=O)c3c(Nc4ccc(I)cc4F)n(C)c(=O)c(C)c32)c1 [TRA, trametinib]
